In data set [1] the test system is secretion of HBsAg in HepG2.2.15 cells. The experiment in a line: microbe, parasite or virus in culture. Type of data set: cell-based, Hepatitis B virus. The following applies: for IC50 / HBsAg IC50: - = inhibition ratio less than 50% in the test concentration range. An excerpt: (§1) The anti-HBV activities of the compounds were expressed as the concentration of compound that achieved 50% inhibition (IC50) to the secretion of HBsAg and HBeAg. […] The cytotoxicity of compounds was expressed as the concentration of compound required to kill 50% (TC50) of the HepG2.2.15 cells.
(§2) HepG2.2.15 (clonal cells derived from human hepatoma cell line G2) cells were provided by the Chinese Academy of Medical Sciences (P.R. China) and maintained in minimal essential medium (MEM) supplemented with 10% fetal bovine serum and 380 μg/mL of G418, 50 ug/mL of kanamycin, and 0.03% L-glutamine at 37 °C in a 5% CO2 atmosphere with 100% humidity.
(§3) HepG2.2.15 cells were seeded at a density of 1 × 10^5 cells/ml ([…]) in 96-well plates and maintained at 37 °C for 24 h prior to extract addition, followed by treatment with various concentrations of drugs. […] Cells were treated with drug-containing fresh medium every 3 d for up to 9 d in a time-dependent experiment. Medium was taken at the 9th day of the treatment and stored at −20 °C until analysis. The IC50 and selected index (SI) of each compound were calculated, respectively.
(§4) The levels of HBV surface antigen (HBsAg) and HBV e antigen (HBeAg) in the supernatant of the HepG2.2.15 cell were simultaneously detected using enzyme-linked immunosorbent assay (ELISA) kits (Rongsheng Biotechnology Co. Ltd., Shanghai, China) according to the manufacturer’s instructions.The synthesized derivatives were expressed as the concentration of compound that achieved 50% inhibition (IC50) to the secretion of HBsAg and HBeAg. The selectivity index (SI) was determined as the ratio of CC50 to IC50, which is a major pharmaceutical parameter of estimates possible for future clinical application.

Data set [2] relates to HepG2.2.15 cells. Briefly: Cytotoxicity on HepG2.2.15 cells (MTT assay, 9 days). The data set is classed as cell-based, human. The following applies: HepG 2.2.15 cell. The protocol: as §2
HepG2.2.15 cells were seeded at a density of 1 × 10^5 cells/ml ([…]) in 96-well plates and maintained at 37 °C for 24 h prior to extract addition, followed by treatment with various concentrations of drugs. Lamivudine (3TC) was served as the positive control. Cells were treated with drug-containing fresh medium every 3 d for up to 9 d in a time-dependent experiment. Medium was taken at the 9th day of the treatment and stored at −20 °C until analysis. The IC50 and selected index (SI) of each compound were calculated, respectively.
Logarithmically growing cells were seeded in 96-well culture plates at a density of 1 × 10^5 cells/mL ([…]). They were cultured for 24 h and then treated with various concentrations of drugs. Optical density (OD) values were read at 450 nm after 9 days and the percentage of cell death was calculated; the cells were treated with drug-containing fresh medium every 3 d for up to 9 d. After drug treatment, the cytotoxicity was measured using the MTT assay.

Data set [3] has as its system secretion of HBeAg in HepG2.2.15 cells. Briefly: Inhibition of HBeAg secretion in HepG2.2.15 cells (ELISA). Type of data set: cell-based, Hepatitis B virus. The conditions noted are these: 9 days.
Text: as §1, §2, §3, §4

Where [4] appears, read: HepG2.2.15 cells, 9 days, ELISA, read-out: HBsAg IC50.
Setting [5] is: ELISA, - = inhibition ratio less than 50% in the test concentration range.
[6] abbreviates: Hepatitis B virus, HepG2.2.15, 216 h, read-out: HBsAg IC50, HepG2.2.15 cells, 9 days, ELISA.
[7] abbreviates: HepG2.2.15 cells, 9 days, ELISA.
Where [8] appears, read: Hepatitis B virus, HepG2.2.15, 216 h, ELISA, - = inhibition ratio less than 50% in the test concentration range.

We go through 17 compounds from article PMC6017342, “Discovery of Oxime Ethers as Hepatitis B Virus (HBV) Inhibitors by Docking, Screening and In Vitro Investigation” (Molecules : A Journal of Synthetic Chemistry and Natural …, 2018).

Several values for one entry are separate records, joined by “and”; a condition that tells them apart may be missing. Equal entries are not always repeated. Where two headings read alike, the source gives them in different places.

“Ethyl (E)-4-(4-chlorophenyl)-4-[(benzyloxy)imino]butanoate [Compound 3c-2]”: the “HBsAg SI (selectivity index = TC50/IC50)” value in data set [1] (HepG2.2.15 cells, 9 days) was 1.34. For the same compound, the results for the IC50 in data set [1] (setting [4]) and in data set [3] (setting [5]) were 94.7 µM and 93.9 µM, respectively. For the same compound, the “TC50 (50% cytotoxicity concentration)” value in data set [2] is 127.10 µM. Besides, the “HBeAg SI (selectivity index = TC50/IC50)” value in data set [3] was 1.34.
With “Furan-2-ylmethyl (E)-4-(4-chlorophenyl)-4-[(benzyloxy)imino]butanoate [Compound 4c-2]”, the values for the IC50 in data set [1] (setting [4]) and in data set [3] (setting [5]) were more than 293 µM and more than 359 µM, respectively. Also, the “TC50 (50% cytotoxicity concentration)” value in data set [2] is more than 1500 µM.
`Nc1ccn([C@@H]2CS[C@H](CO)O2)c(=O)n1` [Compound 3TC, Lamivudine, reference compound]: the IC50 in data set [1] (setting [6]) worked out at 291 µM. Besides, the “TC50 (50% cytotoxicity concentration)” value in data set [2] is 517.40 µM.
Turning to “Furan-2-ylmethyl (E)-4-(4-methylbenzoyl)-4-[(benzyloxy)imino]butanoate [Compound 4a-2]”, in data set [1] (setting [7]), the “HBsAg IC50” value is “non”. The half-maximal inhibitory concentration (IC50) in data set [1] (setting [4]) is more than 293 µM; in data set [3] (setting [5]) it was more than 359 µM. Further, the “TC50 (50% cytotoxicity concentration)” value in data set [2] is more than 1500 µM.
Regarding “(E)-4-(4-Methylbenzoyl)-4-[(methoxy)imino]-N-phenylbutanamide [Compound 5a-1]”, in data set [1] (HepG2.2.15 cells, 9 days), the “HBsAg SI (selectivity index = TC50/IC50)” value is listed as more than 20.02. Besides, the IC50 in data set [1] (setting [4]) is 74.9 µM; in data set [3] (setting [5]), 274 µM. Also, the “TC50 (50% cytotoxicity concentration)” value in data set [2] was more than 1500 µM. The “HBeAg SI (selectivity index = TC50/IC50)” value in data set [3] is more than 5.48.
Take “Ethyl (E)-4-(4-methoxyphenyl)-4-[(benzyloxy)imino]butanoate [Compound 3b-2]”: in data set [1] (HepG2.2.15 cells, 9 days), the “HBsAg SI (selectivity index = TC50/IC50)” value came to 4.95. Further, the figures for the IC50 in data set [1] (setting [4]) and in data set [3] (setting [5]) were 86.9 µM and more than 359 µM, respectively. In data set [2], the “TC50 (50% cytotoxicity concentration)” value worked out at 429.88 µM.
Take `CO/N=C(\CCC(=O)OCc1ccco1)c1ccc(OC)cc1` [Compound 4b-1, Furan-2-ylmethyl (E)-4-(4-methoxyphenyl)-4-[(methoxy)imino]butanoate]: in data set [1] (HepG2.2.15 cells, 9 days), the “HBsAg SI (selectivity index = TC50/IC50)” value is on record as 2.72. In addition, the IC50 was 128 µM in data set [1] (setting [6]) and more than 359 µM in data set [3] (setting [8]). In addition, in data set [2], the “TC50 (50% cytotoxicity concentration)” value amounted to 347.55 µM.
On the same counts, the results for `CO/N=C(\CCC(=O)Nc1ccccc1)c1ccc(OC)cc1` [Compound 5b-1, (E)-4-(4-Methoxyphenyl)-4-[(methoxy)imino]-N-phenylbutanamide] are 2.28, 208 µM, more than 359 µM and 473.25 µM.
In the case of `CCOC(=O)CC/C(=N\OC)C(=O)c1ccc(C)cc1` [Compound 3a-1, Ethyl (E)-4-(4-methylbenzoyl)-4-[(methoxy)imino]butanoate], in data set [1] (HepG2.2.15 cells, 9 days), the “HBsAg SI (selectivity index = TC50/IC50)” value was more than 5.12. The IC50 in data set [1] (setting [6]) is 293 µM; in data set [3] (setting [8]) it was more than 359 µM. Moreover, the “TC50 (50% cytotoxicity concentration)” value in data set [2] was more than 1500 µM.
For the compound “Ethyl (E)-4-(4-methylbenzoyl)-4-[(benzyloxy)imino]butanoate [Compound 3a-2]”, in data set [1] (setting [7]), the “HBsAg IC50” value is recorded as “non”. Besides, the 50% inhibitory concentration (IC50) in data set [1] (setting [4]) is more than 293 µM; in data set [3] (setting [5]) it was more than 359 µM. The “TC50 (50% cytotoxicity concentration)” value in data set [2] is more than 1500 µM.
Regarding `CO/N=C(\CCC(=O)Nc1ccccc1)c1ccc(Cl)cc1` [Compound 5c-1, (E)-4-(4-Chlorophenyl)-4-[(methoxy)imino]-N-phenylbutanamide], in data set [1] (HepG2.2.15 cells, 9 days), the “HBsAg SI (selectivity index = TC50/IC50)” value turned out to be 28.51. Also, in data set [2], the “TC50 (50% cytotoxicity concentration)” value is 1138.45 µM and >1500 µM. Moreover, the “HBeAg SI (selectivity index = TC50/IC50)” value in data set [3] is given as 4.63. In addition, the “HBeAg IC50” value in data set [3] (setting [5]) is on record as “non”. Moreover, the IC50 in data set [3] (setting [8]) came out at 246 µM.
For “(E)-4-(4-Methoxyphenyl)-4-[(benzyloxy)imino]-N-phenylbutanamide [Compound 5b-2]”, the “HBsAg SI (selectivity index = TC50/IC50)” value in data set [1] (HepG2.2.15 cells, 9 days) is more than 14.82. Also, the results for the IC50 in data set [1] (setting [4]) and in data set [3] (setting [5]) were 101 µM and 192 µM, respectively. Further, the “TC50 (50% cytotoxicity concentration)” value in data set [2] was more than 1500 µM. The “HBeAg SI (selectivity index = TC50/IC50)” value in data set [3] was more than 7.83.
As to `CCOC(=O)CC/C(=N\OC)c1ccc(Cl)cc1` [Compound 3c-1, Ethyl (E)-4-(4-chlorophenyl)-4-[(methoxy)imino]butanoate], the “HBsAg SI (selectivity index = TC50/IC50)” value in data set [1] (HepG2.2.15 cells, 9 days) is reported as 2.00. Further, the IC50 in data set [1] (setting [6]) is 225 µM; in data set [3] (setting [8]) it was more than 359 µM. Also, in data set [2], the “TC50 (50% cytotoxicity concentration)” value was found to be 450.67 µM.
For the compound `O=C(CC/C(=N\OCc1ccccc1)c1ccc(Cl)cc1)Nc1ccccc1` [Compound 5c-2, (E)-4-(4-Chlorophenyl)-4-[(benzyloxy)imino]-N-phenylbutanamide], the melting point lay in the range of 116 to 117.9 °C.
With `CCOC(=O)CC/C(=N\OC)c1ccc(OC)cc1` [Compound 3b-1, Ethyl (E)-4-(4-methoxyphenyl)-4-[(methoxy)imino]butanoate], in data set [1] (setting [7]), the “HBsAg IC50” value was “inhibitory activity could be neglected”. The IC50 is more than 293 µM in data set [1] (setting [6]) and more than 359 µM in data set [3] (setting [8]). In addition, the “TC50 (50% cytotoxicity concentration)” value in data set [2] came out at 1383.74 µM.
On to `CO/N=C(\CCC(=O)OCc1ccco1)c1ccc(Cl)cc1` [Compound 4c-1, Furan-2-ylmethyl (E)-4-(4-chlorophenyl)-4-[(methoxy)imino]butanoate], for which the “HBsAg IC50” value in data set [1] (setting [7]) is given as “non”. The IC50 in data set [1] (setting [6]) is more than 293 µM; in data set [3] (setting [8]), more than 359 µM. Further, in data set [2], the “TC50 (50% cytotoxicity concentration)” value was more than 1500 µM.
With `COc1ccc(/C(CCC(=O)OCc2ccco2)=N/OCc2ccccc2)cc1` [Compound 4b-2, Furan-2-ylmethyl (E)-4-(4-methoxyphenyl)-4-[(benzyloxy)imino]butanoate], the “HBsAg SI (selectivity index = TC50/IC50)” value in data set [1] (HepG2.2.15 cells, 9 days) is 4.94. In addition, the IC50 is 234 µM in data set [1] (setting [6]) and more than 359 µM in data set [3] (setting [8]). Also, in data set [2], the “TC50 (50% cytotoxicity concentration)” value worked out at 1153.49 µM.
